Data as given in the NIST ThermoML archive (doi:10.1021/je4008052).
Where “and” joins values, the source holds several entries; their conditions need not be identical. Identical values can stand only once.

Details: Liquid, Gas chromatography

CCCCCCCC/C=C\CCCCCCCCCCCCC [(Z)-tricos-9-ene]
Details | vapor or sublimation pressure
298.15 K | 1.146e-07 kPa and 1.205e-07 kPa
308.15 K | 5.055e-07 kPa and 5.324e-07 kPa
318.15 K | 1.987e-06 kPa and 2.096e-06 kPa
328.15 K | 7.042e-06 kPa and 7.434e-06 kPa
358.15 K | 0.0001951 kPa and 0.0001844 kPa
368.15 K | 0.0004985 kPa and 0.0004708 kPa
378.15 K | 0.001195 kPa and 0.001128 kPa
388.15 K | 0.0027 kPa and 0.002546 kPa
398.15 K | 0.00545 kPa and 0.005782 kPa
408.15 K | 0.01111 kPa and 0.01179 kPa
418.15 K | 0.02163 kPa and 0.02297 kPa
428.15 K | 0.04041 kPa and 0.04294 kPa
438.15 K | 0.07269 kPa and 0.07727 kPa
448.15 K | 0.1262 kPa and 0.1343 kPa
458.15 K | 0.2121 kPa and 0.2258 kPa
468.15 K | 0.346 kPa and 0.3684 kPa
478.15 K | 0.5489 kPa and 0.5848 kPa
488.15 K | 0.8487 kPa and 0.9046 kPa
498.15 K | 1.281 kPa and 1.366 kPa
508.15 K | 1.891 kPa and 2.018 kPa
518.15 K | 2.735 kPa and 2.92 kPa
528.15 K | 3.88 kPa and 4.144 kPa
538.15 K | 5.406 kPa and 5.777 kPa
548.15 K | 7.406 kPa and 7.919 kPa
558.15 K | 9.989 kPa and 10.69 kPa
568.15 K | 13.28 kPa and 14.21 kPa
578.15 K | 17.41 kPa and 18.64 kPa
588.15 K | 22.53 kPa and 24.14 kPa
598.15 K | 28.81 kPa and 30.88 kPa
608.15 K | 36.42 kPa and 39.06 kPa
618.15 K | 45.55 kPa and 48.88 kPa
628.15 K | 56.41 kPa and 60.56 kPa
638.15 K | 69.19 kPa and 74.32 kPa
648.15 K | 84.12 kPa and 90.4 kPa
656 K | 104.81 kPa
658.15 K | 101.4 kPa

CCCCCCCC/C=C/CCCCCCCCCCCCC [(E)-9-tricosene]
Details | vapor or sublimation pressure
298.15 K | 1.041e-07 kPa and 1.013e-07 kPa
308.15 K | 4.621e-07 kPa and 4.52e-07 kPa
318.15 K | 1.828e-06 kPa and 1.795e-06 kPa
328.15 K | 6.514e-06 kPa and 6.421e-06 kPa
338.15 K | 2.089e-05 kPa and 2.112e-05 kPa
358.15 K | 0.0001722 kPa and 0.000173 kPa
368.15 K | 0.0004428 kPa and 0.0004438 kPa
378.15 K | 0.001067 kPa
388.15 K | 0.002425 kPa and 0.002419 kPa
398.15 K | 0.005195 kPa and 0.00522 kPa
408.15 K | 0.01062 kPa and 0.01069 kPa
418.15 K | 0.02075 kPa and 0.02093 kPa
428.15 K | 0.0389 kPa and 0.0393 kPa
438.15 K | 0.07017 kPa and 0.07101 kPa
448.15 K | 0.1222 kPa and 0.1238 kPa
458.15 K | 0.2059 kPa and 0.209 kPa
468.15 K | 0.3368 kPa and 0.3423 kPa
478.15 K | 0.5356 kPa and 0.5451 kPa
488.15 K | 0.83 kPa and 0.8458 kPa
498.15 K | 1.256 kPa and 1.281 kPa
508.15 K | 1.858 kPa and 1.898 kPa
518.15 K | 2.693 kPa and 2.753 kPa
528.15 K | 3.828 kPa and 3.918 kPa
538.15 K | 5.344 kPa and 5.475 kPa
548.15 K | 7.336 kPa and 7.523 kPa
558.15 K | 9.914 kPa and 10.18 kPa
568.15 K | 13.2 kPa and 13.56 kPa
578.15 K | 17.34 kPa and 17.82 kPa
588.15 K | 22.48 kPa and 23.12 kPa
598.15 K | 28.79 kPa and 29.64 kPa
608.15 K | 36.46 kPa and 37.56 kPa
618.15 K | 45.67 kPa and 47.09 kPa
628.15 K | 56.64 kPa and 58.44 kPa
638.15 K | 69.59 kPa and 71.83 kPa
648.15 K | 84.72 kPa and 87.52 kPa
655 K | 99.7 kPa
656 K | 98.29 kPa
